Results from ChEMBL document CHEMBL5113380, “Functionalized quinoxalinones as privileged structures with broad-ranging pharmacological activities” (Eur J Med Chem, 2022).

organism: Homo sapiens; assay: Inhibition of human TRK relative to control; parameters: concentration or dose not given beside the values; details: concentration not given here

SMILES | inhibition [%]
Cc1nn(-c2ccccc2)c(SCCCO)c1/C=N/Nc1nc2ccccc2[nH]c1=O | 78
CC(=O)N1CCN(c2c(/C=N/Nc3nc4ccccc4nc3O)c(C)nn2-c2ccccc2)CC1 | 80
Cc1nn(-c2ccccc2)c(N2CCN(C)CC2)c1/C=N/Nc1nc2ccccc2nc1O | 83
Cc1nn(-c2ccccc2)c(Cl)c1/C=N/Nc1nc2ccccc2[nH]c1=O | 34

system: A549; assay: Antiproliferative activity against human A549 cells; assay type: functional, cell-based; details: not given

SMILES | IC50 [µM]
COc1ccc(C(=O)/C=C2/Nc3ccccc3NC2=O)cc1 | 66.9

molecular target: not listed separately; assay: Displacement of [3H]glycine from AMPA receptor (unknown origin); assay type: protein-complex assay, Homo sapiens; details: not given

SMILES | Ki [µM] | IC50 [µM]
O=c1[nH]c2cc(-n3ccnc3)c([N+](=O)[O-])cc2[nH]c1=O [YM-90K] | 37 | 
CN1CCc2c([N+](=O)[O-])cc3[nH]c(=O)c(=O)[nH]c3c2C1 |  | 0.37
CC(C)CCN1CCc2c(Br)cc3nc(O)c(O)nc3c2C1 |  | > 10
CCC(C)N1CCc2c(Br)cc3nc(O)c(O)nc3c2C1 (stereo not given) |  | > 10
CN1CCc2c(c([N+](=O)[O-])cc3[nH]c(=O)c(=O)[nH]c23)C1 |  | 4.9
CCC(C)CN1CCc2c(Br)cc3nc(O)c(O)nc3c2C1 (stereo not given) |  | > 100

molecular target: Human immunodeficiency virus type 1 reverse transcriptase (Human immunodeficiency virus 1, UniProt Q72547); assay: Inhibition of HIV1 reverse transcriptase; details: not given

SMILES | IC50 [µM]
CC(C)COC(=O)N1c2ccccc2NC(=O)[C@H]1C | 64
CC(C)Cc1nc2ccccc2[nH]c1=O | 23
CC(C)COC(=O)N1c2ccccc2NC(=O)[C@H]1CC(C)C | 67

system: LS174T; assay: Antiproliferative activity against human LS174T cells; assay type: functional, cell-based; details: not given

SMILES | IC50 [µM]
COc1ccc(C(=O)/C=C2/Nc3ccccc3NC2=O)cc1 | 24.3

system: HepG2; assay: Antiproliferative activity against human HepG2 cells; assay type: functional, cell-based; details: not given

SMILES | IC50 [µM]
Cc1nn(-c2ccccc2)c(SCCCO)c1/C=N/Nc1nc2ccccc2[nH]c1=O | 23.4

molecular target: Human immunodeficiency virus type 1 reverse transcriptase (Human immunodeficiency virus 1) (UniProt Q72547); assay: Inhibition of HIV1 reverse transcriptase at 100 uM relative to control; details: not given

SMILES | inhibition [%]
CC(C)COC(=O)N1c2ccccc2NC(=O)[C@H]1C | 64
CC(C)Cc1nc2ccccc2[nH]c1=O | 73
CC(C)COC(=O)N1c2ccccc2NC(=O)[C@H]1CC(C)C | 51

molecular target: Prostaglandin G/H synthase 1 (Homo sapiens, UniProt P23219); details: not given
Sequence (P23219 whole entry): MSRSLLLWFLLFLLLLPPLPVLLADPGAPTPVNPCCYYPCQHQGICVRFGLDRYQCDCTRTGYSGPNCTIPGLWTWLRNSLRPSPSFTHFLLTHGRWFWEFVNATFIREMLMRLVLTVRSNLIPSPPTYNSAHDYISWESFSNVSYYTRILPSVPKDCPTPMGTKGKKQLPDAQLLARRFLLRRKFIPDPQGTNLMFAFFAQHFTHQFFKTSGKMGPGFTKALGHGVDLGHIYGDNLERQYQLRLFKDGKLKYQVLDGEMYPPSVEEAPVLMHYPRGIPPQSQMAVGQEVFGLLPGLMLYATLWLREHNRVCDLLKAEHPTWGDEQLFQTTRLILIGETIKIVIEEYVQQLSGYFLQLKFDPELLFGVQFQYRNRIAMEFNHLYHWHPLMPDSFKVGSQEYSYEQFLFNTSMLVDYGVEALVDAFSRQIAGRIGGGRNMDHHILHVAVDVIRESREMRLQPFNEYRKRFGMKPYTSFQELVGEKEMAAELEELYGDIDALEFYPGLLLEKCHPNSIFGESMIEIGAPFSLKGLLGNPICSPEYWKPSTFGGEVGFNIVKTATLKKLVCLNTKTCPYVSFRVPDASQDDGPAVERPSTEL

SMILES | IC50 [µM]
CC(=O)N1CCN(c2c(/C=N/Nc3nc4ccccc4nc3O)c(C)nn2-c2ccccc2)CC1 | > 50
Cc1nn(-c2ccccc2)c(N2CCN(C)CC2)c1/C=N/Nc1nc2ccccc2nc1O | > 50
Cc1nn(-c2ccccc2)c(Cl)c1/C=N/Nc1nc2ccccc2[nH]c1=O | > 50

molecular target: T1, Glutamate receptor ionotropic AMPA (Homo sapiens, UniProt P42261+P42262+P42263+P48058); assay: Displacement of [3H]AMPA from AMPA receptor (unknown origin); assay type: protein-complex assay; details: not given

SMILES | Ki [µM] | IC50 [µM]
O=c1[nH]c2cc(-n3ccnc3)c([N+](=O)[O-])cc2[nH]c1=O [YM-90K] | 0.084 | 
CN1CCc2c([N+](=O)[O-])cc3[nH]c(=O)c(=O)[nH]c3c2C1 |  | 0.063
CC(C)CCN1CCc2c(Br)cc3nc(O)c(O)nc3c2C1 |  | 9.7
CCC(C)N1CCc2c(Br)cc3nc(O)c(O)nc3c2C1 (stereo not given) |  | 2.5
CN1CCc2c(c([N+](=O)[O-])cc3[nH]c(=O)c(=O)[nH]c23)C1 |  | 0.29
CCC(C)CN1CCc2c(Br)cc3nc(O)c(O)nc3c2C1 (stereo not given) |  | > 100

molecular target: Human immunodeficiency virus type 1 reverse transcriptase (Human immunodeficiency virus 1) (UniProt Q72547); assay: Inhibition of HIV1 reverse transcriptase at 10 uM relative to control; details: not given

SMILES | inhibition [%]
CC(C)COC(=O)N1c2ccccc2NC(=O)[C@H]1C | 37
CC(C)Cc1nc2ccccc2[nH]c1=O | 15
CC(C)COC(=O)N1c2ccccc2NC(=O)[C@H]1CC(C)C | 22

system: MCF7; assay: Antiproliferative activity against human MCF7 cells; assay type: functional, cell-based; details: not given

SMILES | IC50 [µM]
Cc1nn(-c2ccccc2)c(SCCCO)c1/C=N/Nc1nc2ccccc2[nH]c1=O | 11.3

molecular target: T1, Glutamate receptor ionotropic AMPA; assay: Displacement of [3H]kainate from AMPA receptor (unknown origin); assay type: protein-complex assay; details: not given

SMILES | Ki [µM] | IC50 [µM]
O=c1[nH]c2cc(-n3ccnc3)c([N+](=O)[O-])cc2[nH]c1=O [YM-90K] | 2.2 | 
CN1CCc2c([N+](=O)[O-])cc3[nH]c(=O)c(=O)[nH]c3c2C1 |  | 0.368
CC(C)CCN1CCc2c(Br)cc3nc(O)c(O)nc3c2C1 |  | 0.68
CCC(C)N1CCc2c(Br)cc3nc(O)c(O)nc3c2C1 (stereo not given) |  | 0.43
CN1CCc2c(c([N+](=O)[O-])cc3[nH]c(=O)c(=O)[nH]c23)C1 |  | 0.38
CCC(C)CN1CCc2c(Br)cc3nc(O)c(O)nc3c2C1 (stereo not given) |  | 2.9

system: HeLa; assay: Antiproliferative activity against human HeLa cells; assay type: functional, cell-based; details: not given

SMILES | IC50 [µM]
COc1ccc(C(=O)/C=C2/Nc3ccccc3NC2=O)cc1 | 15.2

system: MRC5; assay: Antiproliferative activity against human MRC5 cells; assay type: functional, cell-based; details: not given

SMILES | IC50 [µM]
COc1ccc(C(=O)/C=C2/Nc3ccccc3NC2=O)cc1 | 190
